# Measured values taken from patent US20100249193A1, “Nematicidal, Insecticidal and Acaricidal Active Ingredient Combinations Comprising Pyridyl-ethylbenzamides and Insecticides” (Bayer CropScience AG, priority 2009, published 2010).
# System: Meloidogyne incognita
# Test: Meloidogyne incognita test (MELGIN), gall formation on salad seedlings in sand
# Assay type: in vivo
# Conditions: 0% = galls equal to untreated control
# Description: Meloidogyne incognita—Test (MELGIN)
# To produce a suitable preparation of active compound, 1 part by weight of active compound is mixed with the stated amount of solvent, and the concentrate is diluted with emulsifier-containing water to the desired concentration.
# Vessels are filled with sand, a solution of the active ingredient, a suspension containing eggs and larvae of Meloidogyne incognita and salad seeds. The salad seeds germinate and the seedlings grow. Galls develop on the roots.
# After the specified period the nematicidal activity is determined on the basis of the percentage of gall formation. 100% means that no galls were found; 0% means that the number of galls found on the roots of the treated plants was equal to that in untreated control plants.
SMILES,Gall-formation efficacy in % after 21 d (100% = no galls) (0.125 ppm),Gall-formation efficacy in % after 21 d (100% = no galls) (4 ppm)
"O=C(NCCc1ncc(C(F)(F)F)cc1Cl)c1ccccc1C(F)(F)F [Fluopyram, N-{2-[3-chloro-5-(trifluoromethyl)-2-pyridinyl]ethyl}-2-trifluoromethylbenzamide]",56%,–
"CNC(=O)c1cc(C#N)cc(C)c1NC(=O)c1cc(Br)nn1-c1ncccc1Cl [Cyazypyr, cyazypyr]",–,6%
